Data taken from patent publication US20060073099A1, “Treatment screening methods” (priority 2004, published 2006).

Tested on: Macaca mulatta (Rhesus monkey) exposed to a 6 Gy dose of γ-radiation (LD50/30)
Method: Treatment of whole body lethal radiation and characterization of mortality surrogate markers. Two groups of 10 Macaca mulatta (Rhesus monkey) were exposed to a 6 Gy dose of γ-radiation from a ^60Co source. This dose is an LD50/30 dose for this species. […] The animals in each group were treated once per day for 5 consecutive days beginning on the day the animals were exposed to radiation. The animals consisted of 12 males and 8 females with a body weight range of about 2.5-5.5 kg at the onset of treatment. The age range was 1.75-5.0 years at the onset of treatment.
Twelve male and eight female rhesus monkeys were assigned to the study. Each group comprised of seven male and three female animals. During the acclimation period, animals were assigned to their respective dose groups by randomization based on the absolute neutrophil count. The average of 3 pretreatment absolute neutrophil counts were used for each animal.
The test article (100 mg/mL AED) and vehicle or control article in aliquots of 10 mL. Test article was an aqueous suspension in vehicle. The vehicle article consists of a solution of sodium shloride (0.9% w/v), carboxymethylcellulose (0.5% w/v), polysorbate 80 (2% v/v), benzalkonium chloride (0.02% v/v) and sodium phosphate (10 mM, pH 6.5). Immediately prior to drawing into a syringe, the test article formulation was briefly vortexed to uniformly distribute sedimented test article. Once drawn into a syringe, the test article was administered within 10 minutes. Just prior to injection, the syringe containing the test article was rotated end-over-end to uniformly disperse the compound.
Whole body radiation. The animals were exposed to ionizing as follows. Dosimetry measurements using phantoms, the dose rate and duration of irradiation and the actual time of irradiation for each individual animal was recorded. Animals were fasted overnight prior to whole-body irradiation and fed upon return to the housing facility.
The animals received a midline treatment dose of 600 cGy. The dose rate of the ^60Co gamma source was about 60 cGy per minute and the actual rate was recorded for each animal. To obtain a homogenous dose distribution, the radiation treatment was divided in two parts. First, the animal received half of the dose by anteroposterior irradiation. The second half of the dose was delivered by posteroanterior irradiation. […] The radiation dose was calibrated using an acrylic phantom placed in the same experimental set up that was used for animal irradiation.

## C[C@]12CC[C@H]3[C@@H](CC=C4C[C@@H](O)CC[C@@]43C)[C@@H]1CC[C@@H]2O [3β,17β-dihydroxyandrost-5-ene]
600 cGy 60Co whole body γ-irradiation, 15 mg/kg i.m. once per day for 5 consecutive days, first injection 2-3 hours after irradiation, 10 animals, observed to day 40-41
  animals survived: 9 of 10
600 cGy whole body irradiation, 15 mg/kg i.m. daily x5, 10 animals, p=0.009 by exact test of homogeneity vs vehicle (51 days)
  days of severe thrombocytopenia (less than 20,000 platelets/μL) experienced collectively by the group: 32 days
600 cGy whole body irradiation, 15 mg/kg i.m. daily x5, 95% CI 0,2, p=0.037 by exact log rank test vs vehicle (median 5 days)
  median days of febrile severe neutropenia: 0 days
600 cGy whole body irradiation, 15 mg/kg i.m. daily x5, Fisher's exact test mid p=0.073 vs two combined control groups (45% mortality)
  Mortality: 10%
600 cGy whole body irradiation, 15 mg/kg i.m. daily x5, the one non-survivor did not have the condition
  survivors having febrile severe neutropenia (core body temperature >40.4° C. and absolute neutrophil count less than 500 cells/μL) at some time during the protocol: 2 animals
